Results on three compounds are retold here after ChEMBL document CHEMBL1126388, “Synthesis of metabolically stable arylpiperazine 5-HT1A receptor agonists” (Bioorg Med Chem Lett, 1992).

In test [1] the target is T1, 5-hydroxytryptamine receptor 1A (Mus musculus, UniProt Q64264).
T1 sequence (Q64264 whole entry): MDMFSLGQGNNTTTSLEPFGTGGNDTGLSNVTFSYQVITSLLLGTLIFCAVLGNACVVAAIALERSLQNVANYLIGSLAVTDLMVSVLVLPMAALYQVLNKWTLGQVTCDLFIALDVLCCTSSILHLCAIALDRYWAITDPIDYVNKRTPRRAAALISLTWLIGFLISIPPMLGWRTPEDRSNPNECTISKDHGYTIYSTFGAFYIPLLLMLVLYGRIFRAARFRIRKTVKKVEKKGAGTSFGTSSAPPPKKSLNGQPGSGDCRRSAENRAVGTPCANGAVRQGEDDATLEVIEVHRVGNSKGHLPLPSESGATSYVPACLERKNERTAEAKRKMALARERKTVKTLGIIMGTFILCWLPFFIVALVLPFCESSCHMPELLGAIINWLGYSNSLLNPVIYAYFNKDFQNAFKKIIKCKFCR
Kind of test: Compound was tested for binding affinity to 5-hydroxytryptamine 1A receptor using [3H]8-OH-DPAT as a radioligand.

Test [2] concerns Mus musculus. Kind of test: Effective dose required for hypothermia activity after subcutaneous administration at 1.9 degree F temp in mouse. The format is functional. The note with it: sc.
The test system of test [3] is Mus musculus. Put plainly: Effective dose required for hypothermia activity after >120 min of oral administration at 4.0 degree F temp in mouse. The note with it: 2 h. In kind it is functional.
Test [4] has as its system Mus musculus. Kind of test: Effective dose required for hypothermia activity after subcutaneous administration at 6.4 degree F temp in mouse. The format is functional. The note with it: sc.
The subject of test [5] is Mus musculus. Put plainly: Effective dose required for hypothermia activity after 20 min of oral administration at 2.9 degree F temp in mouse. The format is functional.
The subject of test [6] is Mus musculus. Put plainly: Effective dose required for hypothermia activity after subcutaneous administration at 3.8 degree F temp in mouse. In kind it is functional. The settings on record: sc.

Where only a bound is given, the exact number is not on record here.

A word on the Ki: it is the equilibrium dissociation constant of an inhibitor or competing ligand from its target. Lower therefore signals higher affinity. What is called ED50 is the midpoint of the dose-response relation. A high value points to a need for a large dose. In test [1], `O=C1c2ccccc2S(=O)(=O)N1C[C@@H]1C[C@@H]1CN1CCN(c2ncccn2)CC1` had a Ki of 43.7 nM. For the same compound, the ED50 with Mus musculus [2] is > 0.055 µmol/kg.
`O=C1c2ccccc2S(=O)(=O)N1C[C@H]1C[C@@H]1CN1CCN(c2ncccn2)CC1` gave a Ki in test [1] of 8.7 nM. Moreover, the ED50 in the test with Mus musculus [3] was found to be 0.19 µmol/kg; in the test with Mus musculus [4] it was 0.0032 µmol/kg.
In test [1], `O=C1c2ccccc2S(=O)(=O)N1CCCCN1CCN(c2ncccn2)CC1` [IPSAPIRONE] displayed an inhibition constant (Ki) of 12.1 nM. Further, the ED50 was 0.23 µmol/kg with Mus musculus [5] and 0.00527 µmol/kg in the test with Mus musculus [6].
